Results on 32 molecules are retold here after patent US20250145633A1, “SUBSTITUTED FURANOPYRIMIDINE COMPOUNDS AS PDE1 INHIBITORS” (Dart NeuroScience, LLC, priority 2017, published 2025).

Structures are written as SMILES.

One assay addresses human PDE1B enzyme (Homo sapiens (Human), UniProt Q01064). The experiment in a line: IMAP TR-FRET PDE1B enzymatic assay. In kind it is biochemical. The settings on record: negative log of half-maximal molar inhibitory concentration; 200 nM FAM-cAMP; values given as bins. An outline of the steps:
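Full-length GST-tagged human PDE1B (250 pg/well) in IMAP BSA buffer with 10 U/ml calmodulin and 2.5 mM CaCl2; compound pre-incubated 5 min at room temperature, then 200 nM (final) FAM-cAMP for 30 min. IMAP binding reagent/Tb added, 1 h; TR-FRET 520/490 ratio read. IC50 from sigmoidal dose-response fit.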
`Cc1ncc(CNC(=O)c2c(C)oc3ncnc(NC4(C)CC4)c23)s1` [Example 743, 6-Methyl-N-[(2-methyl-1,3-thiazol-5-yl)methyl]-4-[(1-methylcyclopropyl)amino]furo[2,3-d]pyrimidine-5-carboxamide]: the “PDE1b (pIC50)” value is recorded as more than 8.

For the molecule `Cc1oc2ncnc(NC3(C)CC3)c2c1C(=O)NCc1nc2cc(F)ccc2o1` [Example 751, N-[(5-Fluoro-1,3-benzoxazol-2-yl)methyl]-6-methyl-4-[(1-methylcyclopropyl)amino]furo[2,3-d]pyrimidine-5-carboxamide], the “PDE1b (pIC50)” value is on record as more than 8.

The same assay, now with this note: negative log of half-maximal molar inhibitory concentration; 200 nM FAM-cAMP; values given as bins; read-out: PDE1b (pIC50) (converted).
As for `Cc1oc2ncnc(NC3(C)CC3)c2c1C(=O)NC1CN(c2ccncn2)C1` [Example 720, 6-Methyl-4-[(1-methylcyclopropyl)amino]-N-[1-(pyrimidin-4-yl)azetidin-3-yl]furo[2,3-d]pyrimidine-5-carboxamide], the IC50 is 100 to 1000 nM.

With `Cc1oc2ncnc(NC3(C)CC3)c2c1C(=O)Nc1ccc(C2CCOCC2)cc1` [Example 721, 6-Methyl-4-[(1-methylcyclopropyl)amino]-N-[4-(oxan-4-yl)phenyl]furo[2,3-d]pyrimidine-5-carboxamide], the IC50 is 100 to 1000 nM.

On to `Cc1oc2ncnc(NC3(C)CC3)c2c1C(=O)NCc1ccc(OC(F)(F)F)cc1` [Example 722, 6-Methyl-4-[(1-methylcyclopropyl)amino]-N-{[4-(trifluoromethoxy)phenyl]methyl}furo[2,3-d]pyrimidine-5-carboxamide], for which the IC50 was 10 to 100 nM.

With `Cc1oc2ncnc(NC3(C)CC3)c2c1C(=O)NCc1ccc(OC(F)(F)F)cc1F` [Example 723, N-{[2-Fluoro-4-(trifluoromethoxy)phenyl]methyl}-6-methyl-4-[(1-methylcyclopropyl)amino]furo[2,3-d]pyrimidine-5-carboxamide], the IC50 was 10 to 100 nM.

Regarding `Cc1oc2ncnc(NC3(C)CC3)c2c1C(=O)NCCc1nc2cc(F)ccc2[nH]1` [Example 724, N-[2-(5-Fluoro-1H-1,3-benzodiazol-2-yl)ethyl]-6-methyl-4-[(1-methylcyclopropyl)amino]furo[2,3-d]pyrimidine-5-carboxamide], the IC50 was 10 to 100 nM.

As for `Cc1oc2ncnc(NC3(C)CC3)c2c1C(=O)NCc1nc2ccc(F)cc2n1C` [Example 725, N-[(6-Fluoro-1-methyl-1H-1,3-benzodiazol-2-yl)methyl]-6-methyl-4-[(1-methylcyclopropyl)amino]furo[2,3-d]pyrimidine-5-carboxamide], the IC50 is 10 to 100 nM.

On to `CCc1nccc(CNC(=O)c2c(C)oc3ncnc(NC4(C)CC4)c23)n1` [Example 726, N-[(2-Ethylpyrimidin-4-yl)methyl]-6-methyl-4-[(1-methylcyclopropyl)amino]furo[2,3-d]pyrimidine-5-carboxamide], for which the IC50 was 10 to 100 nM.

For `Cc1oc2ncnc(NC3(C)CC3)c2c1C(=O)Nc1ccc(C2CCOCC2)cn1` [Example 727, 6-Methyl-4-[(1-methylcyclopropyl)amino]-N-[5-(oxan-4-yl)pyridin-2-yl]furo[2,3-d]pyrimidine-5-carboxamide], the IC50 was 10 to 100 nM.

Consider `Cc1nc(CNC(=O)c2c(C)oc3ncnc(NC4(C)CC4)c23)oc1C` [Example 728, N-[(Dimethyl-1,3-oxazol-2-yl)methyl]-6-methyl-4-[(1-methylcyclopropyl)amino]furo[2,3-d]pyrimidine-5-carboxamide], for which the IC50 is 10 to 100 nM.

Regarding `Cc1oc2ncnc(NC3(C)CC3)c2c1C(=O)NCc1nc2cc(F)ccc2[nH]1` [Example 729, N-[(5-Fluoro-1H-1,3-benzodiazol-2-yl)methyl]-6-methyl-4-[(1-methylcyclopropyl)amino]furo[2,3-d]pyrimidine-5-carboxamide], the IC50 is 10 to 100 nM.

Consider `Cc1oc2ncnc(NC3(C)CC3)c2c1C(=O)NCCc1nc2cc(F)ccc2o1` [Example 730, N-[2-(5-Fluoro-1,3-benzoxazol-2-yl)ethyl]-6-methyl-4-[(1-methylcyclopropyl)amino]furo[2,3-d]pyrimidine-5-carboxamide], for which the IC50 was 10 to 100 nM.

For `COc1cnc(CNC(=O)c2c(C)oc3ncnc(NC4(C)CC4)c23)cn1` [Example 731, N-[(5-Methoxypyrazin-2-yl)methyl]-6-methyl-4-[(1-methylcyclopropyl)amino]furo[2,3-d]pyrimidine-5-carboxamide], the IC50 is 10 to 100 nM.

In the case of `Cc1oc2ncnc(NC3(C)CC3)c2c1C(=O)NCc1cnc(C2CC2)cn1` [Example 732, N-[(5-Cyclopropylpyrazin-2-yl)methyl]-6-methyl-4-[(1-methylcyclopropyl)amino]furo[2,3-d]pyrimidine-5-carboxamide], the IC50 is 10 to 100 nM.

For `Cc1oc2ncnc(NC3(C)CC3)c2c1C(=O)NCc1nc2cc(F)ccc2n1C` [Example 733, N-[(5-Fluoro-1-methyl-1H-1,3-benzodiazol-2-yl)methyl]-6-methyl-4-[(1-methylcyclopropyl)amino]furo[2,3-d]pyrimidine-5-carboxamide], the IC50 was 10 to 100 nM.

In the case of `Cc1oc2ncnc(NC3(C)CC3)c2c1C(=O)NCCc1nc2cc(F)ccc2n1C` [Example 734, N-[2-(5-Fluoro-1-methyl-1H-1,3-benzodiazol-2-yl)ethyl]-6-methyl-4-[(1-methylcyclopropyl)amino]furo[2,3-d]pyrimidine-5-carboxamide], the IC50 was 10 to 100 nM.

For `Cc1oc2ncnc(NC3(C)CC3)c2c1C(=O)Nc1ccc(C2CCOCC2)nc1` [Example 735, 6-Methyl-4-[(1-methylcyclopropyl)amino]-N-[6-(oxan-4-yl)pyridin-3-yl]furo[2,3-d]pyrimidine-5-carboxamide], the IC50 is 100 to 1000 nM.

Take `Cc1oc2ncnc(NC3(C)CC3)c2c1C(=O)Nc1cnc(C2CCOCC2)cn1` [Example 736, 6-Methyl-4-[(1-methylcyclopropyl)amino]-N-[5-(oxan-4-yl)pyrazin-2-yl]furo[2,3-d]pyrimidine-5-carboxamide]: the IC50 is 10 to 100 nM.

On to `Cc1oc2ncnc(NC3(C)CC3)c2c1C(=O)NCc1cccc(N2CCOCC2)n1` [Example 737, 6-Methyl-4-[(1-methylcyclopropyl)amino]-N-{[6-(morpholin-4-yl)pyridin-2-yl]methyl}furo[2,3-d]pyrimidine-5-carboxamide], for which the IC50 was 10 to 100 nM.

Take `Cc1oc2ncnc(NC3(C)CC3)c2c1C(=O)NCc1nnn(C)n1` [Example 738, 6-Methyl-N-[(2-methyl-2H-1,2,3,4-tetrazol-5-yl)methyl]-4-[(1-methylcyclopropyl)amino]furo[2,3-d]pyrimidine-5-carboxamide]: the IC50 is 10 to 100 nM.

For `Cc1oc2ncnc(NC3(C)CC3)c2c1C(=O)NCc1csc(N2CCOCC2)n1` [Example 739, 6-Methyl-4-[(1-methylcyclopropyl)amino]-N-{[2-(morpholin-4-yl)-1,3-thiazol-4-yl]methyl}furo[2,3-d]pyrimidine-5-carboxamide], the IC50 is 10 to 100 nM.

For `Cc1oc2ncnc(NC3(C)CC3)c2c1C(=O)NCc1cnn(C)n1` [Example 740, 6-Methyl-N-[(2-methyl-2H-1,2,3-triazol-4-yl)methyl]-4-[(1-methylcyclopropyl)amino]furo[2,3-d]pyrimidine-5-carboxamide], the IC50 was 10 to 100 nM.

For `Cc1oc2ncnc(NC3(C)CC3)c2c1C(=O)NCc1ncn(C)n1` [Example 741, 6-Methyl-N-[(1-methyl-1H-1,2,4-triazol-3-yl)methyl]-4-[(1-methylcyclopropyl)amino]furo[2,3-d]pyrimidine-5-carboxamide], the IC50 was 10 to 100 nM.

On to `Cc1oc2ncnc(NC3(C)CC3)c2c1C(=O)N1Cc2cc(Br)cnc2C1` [Example 742, 5-{3-Bromo-5H,6H,7H-pyrrolo[3,4-b]pyridine-6-carbonyl}-6-methyl-N-(1-methylcyclopropyl)furo[2,3-d]pyrimidin-4-amine], for which the IC50 is 10 to 100 nM.

As for `Cc1ncc(CNC(=O)c2c(C)oc3ncnc(NC4(C)CC4)c23)o1` [Example 744, 6-Methyl-N-[(2-methyl-1,3-oxazol-5-yl)methyl]-4-[(1-methylcyclopropyl)amino]furo[2,3-d]pyrimidine-5-carboxamide], the IC50 was 10 to 100 nM.

Regarding `Cc1oc2ncnc(NC3(C)CC3)c2c1C(=O)NCc1ccc(N2CCOCC2)nn1` [Example 745, 6-Methyl-4-[(1-methylcyclopropyl)amino]-N-{[6-(morpholin-4-yl)pyridazin-3-yl]methyl}furo[2,3-d]pyrimidine-5-carboxamide], the IC50 is 10 to 100 nM.

In the case of `Cc1oc2ncnc(NC3(C)CC3)c2c1C(=O)NCC1CC1` [Example 746, N-(Cyclopropylmethyl)-6-methyl-4-[(1-methylcyclopropyl)amino]furo[2,3-d]pyrimidine-5-carboxamide], the IC50 is 10 to 100 nM.

`Cc1nc(CNC(=O)c2c(C)oc3ncnc(NC4(C)CC4)c23)co1` [Example 747, 6-Methyl-N-[(2-methyl-1,3-oxazol-4-yl)methyl]-4-[(1-methylcyclopropyl)amino]furo[2,3-d]pyrimidine-5-carboxamide]: the IC50 was 10 to 100 nM.

In the case of `Cc1oc2ncnc(NC3(C)CC3)c2c1C(=O)N1Cc2cc(C3CCOCC3)cnc2C1` [Example 748, 6-Methyl-N-(1-methylcyclopropyl)-5-[3-(oxan-4-yl)-5H,6H,7H-pyrrolo[3,4-b]pyridine-6-carbonyl]furo[2,3-d]pyrimidin-4-amine], the IC50 was 100 to 1000 nM.

As for `Cc1oc2ncnc(NC3(C)CC3)c2c1C(=O)NC(C)c1ncco1` (centres unmarked) [Example 749, 6-Methyl-4-[(1-methylcyclopropyl)amino]-N-[1-(1,3-oxazol-2-yl)ethyl]furo[2,3-d]pyrimidine-5-carboxamide], the IC50 was 100 to 1000 nM.

As for `Cc1oc2ncnc(NC3(C)CC3)c2c1C(=O)NC(C)c1ccon1` (centres unmarked) [Example 750, 6-Methyl-4-[(1-methylcyclopropyl)amino]-N-[1-(1,2-oxazol-3-yl)ethyl]furo[2,3-d]pyrimidine-5-carboxamide], the IC50 was 10 to 100 nM.
